Each molecule was assayed against T1, CCR1 (Homo sapiens, UniProt P32246) (assay: CCR1 inhibition (THP-1 FLIPR assay / THP-1 whole cell radioligand binding assay; the patent does not say which gave the values)). Settings: threshold list, less than 100 nm; compounds of Table 1; read-out: inhibitory activity.
T1 construct: a monocytic derived cell line that endogenously expresses CCR1; host or cells: THP-1 cells
T1 sequence (P32246 1-355): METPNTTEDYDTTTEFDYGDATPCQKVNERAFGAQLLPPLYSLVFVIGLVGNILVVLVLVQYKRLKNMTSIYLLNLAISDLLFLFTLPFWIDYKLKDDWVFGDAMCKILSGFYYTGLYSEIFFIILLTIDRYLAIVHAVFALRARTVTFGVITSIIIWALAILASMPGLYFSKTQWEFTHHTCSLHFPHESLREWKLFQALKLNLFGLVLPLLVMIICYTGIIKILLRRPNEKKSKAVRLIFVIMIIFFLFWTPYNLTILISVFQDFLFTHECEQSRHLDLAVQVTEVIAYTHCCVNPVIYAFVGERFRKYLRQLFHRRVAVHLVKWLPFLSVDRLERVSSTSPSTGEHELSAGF
Type: cell-based

| Structure (SMILES) | IC50 [nM] |
| --- | --- |
| CN(C)c1ccc2nc(C(F)(F)F)nc(N3C[C@H](O)[C@@H](N4CCN(C(=O)c5ccc(Cl)cc5)CC4)C3)c2c1 (stereo in doubt) [Example 187, 4-[4-(4-chlorobenzoyl)piperazin-1-yl]-1-[6-(dimethylamino)-2-(trifluoromethyl)quinazolin-4-yl]pyrrolidin-3-ol] | < 100 |
| O=C(c1ccc(Cl)cc1)N1CCN([C@H]2CN(c3nc(C(F)(F)F)nc4cccc(F)c34)C[C@@H]2O)CC1 (stereo in doubt) [Example 172, 4-[4-(4-chlorobenzoyl)piperazin-1-yl]-1-[5-fluoro-2-(trifluoromethyl)quinazolin-4-yl]pyrrolidin-3-ol] | < 100 |
| CCOc1ccc2nc(C(F)(F)F)nc(N3C[C@H](O)[C@@H](N4CCN(C(=O)c5ccc(Cl)cc5)CC4)C3)c2c1 (stereo in doubt) [Example 184, 4-[4-(4-chlorobenzoyl)piperazin-1-yl]-1-[6-ethoxy-2-(trifluoromethyl)quinazolin-4-yl]pyrrolidin-3-ol] | < 100 |
| O[C@H]1CN(c2ncnc3cc(Cl)ccc23)C[C@@H]1N1CCN(Cc2ccc(Cl)cc2)CC1 (stereo in doubt) [Example 87, 4-[4-(4-chlorobenzyl)piperazin-1-yl]-1-(7-chloroquinazolin-4-yl)pyrrolidin-3-ol] | < 100 |
| O=C(c1ccc(Cl)cc1)N1CCN([C@@H]2CN(c3nc(C(F)(F)F)nc4cnccc34)C[C@H]2O)CC1 (racemic) [Example 137, 4-[4-(4-chlorobenzoyl)piperazin-1-yl]-1-[2-(trifluoromethyl)pyrido[3,4-d]pyrimidin-4-yl]pyrrolidin-3-ol] | < 100 |
| O=C(c1ccc(Cl)cc1)N1CCN([C@@H]2CN(c3nc(C(F)(F)F)nc4ccccc34)C[C@H]2O)CC1 (stereo in doubt) [Example 94, 4-[4-(4-chlorobenzoyl)piperazin-1-yl]-1-[2-(trifluoromethyl)quinazolin-4-yl]pyrrolidin-3-ol] | < 100 |

More lines, now with the values ahead:

| IC50 [nM] | Structure (SMILES) |
| --- | --- |
| < 100 | COc1ccc2nc(C(F)(F)F)nc(N3C[C@H](O)[C@@H](N4CCN(C(=O)c5ccc(Cl)cc5)CC4)C3)c2c1 (stereo in doubt) [Example 165, 4-[4-(4-chlorobenzoyl)piperazin-1-yl]-1-[6-methoxy-2-(trifluoromethyl)quinazolin-4-yl]pyrrolidin-3-ol] |
| < 100 | O=C(c1ccc(Cl)cc1)N1CCN([C@H]2CN(c3nc(C(F)(F)F)nc4cccc(Cl)c34)C[C@@H]2O)CC1 (stereo in doubt) [Example 176, 4-[4-(4-chlorobenzoyl)piperazin-1-yl]-1-[5-chloro-2-(trifluoromethyl)quinazolin-4-yl]pyrrolidin-3-ol] |
| < 100 | Cc1ccc2nc(C(F)(F)F)nc(N3C[C@H](O)[C@@H](N4CCN(C(=O)c5ccc(Cl)cc5)CC4)C3)c2c1 (stereo in doubt) [Example 174, 4-[4-(4-chlorobenzoyl)piperazin-1-yl]-1-[6-methyl-2-(trifluoromethyl)quinazolin-4-yl]pyrrolidin-3-ol] |

Reference: patent publication US7880002B2, “Substituted piperazinyl-pyrrolidine compounds useful as chemokine receptor antagonists” (Millennium Pharmaceuticals, Inc., priority 2004, dated 2011)
